Tests used:
[1] = Tolerability of daily oral supplementation in the impact acceleration model; type: in vivo; conditions: 10 or 40 mg/kg/day
Excerpt: Method. The impact acceleration injury model in rats described in Marmarou et al., J Neurosurg. 80:291-300 (1994), incorporated herein by reference, was used for the study. Four groups of ten (n=40) of adult male Sprague-Dawley rats were subjected to an impact acceleration injury resulting in reproducible severe traumatic brain injury. Rats weighing between 350 and 400 g received induction anesthesia and subsequently maintained on inhaled anesthetic using a modified medical anesthesia machine. The animals were shaved and prepared in sterile fashion for surgery, followed by subcutaneous injection of local anesthetic into the planned incision site. A 3 cm midline incision in the scalp was made, periosteal membranes separated, exposing bregma and lambda. A metal disk 10 mm in diameter and 3 mm thick was attached to the skull with cyanoacrylate and centered between bregma and lambda. The animal was placed prone on a foam bed with the metal disk directly under a plexiglas tube. A 450 g brass weight was dropped through the tube from a height of 2 meters striking the disk. The animal was then ventilated on 100% O2 while the skull inspected and the incision repaired. When the animal recovered spontaneous respirations, anesthesia was discontinued and the animal returned to its cage for postoperative observation (Marmarou et al., supra). […]

[2] = Serum phospholipid fatty acid levels after DHA supplementation following brain trauma; type: in vivo, Sprague-Dawley rats; conditions: for increased levels of serum DHA over initial levels: dietary, serum phospholipids
Method: (§1) DHA supplementation and serum level monitoring. The four groups received dietary supplementation with DHA (Martek, Columbia, Md.). Two of the four groups received dietary supplementation DHA daily in the following amounts: Group 1, 10 mg/kg/day; Group 2, 40 mg/kg/day. Groups 3 served as an unsupplemented control, and Group 4 underwent sham injury and received no supplementation. Each group received rat chow ad lib and were housed in a small animal vivarium under veterinary staff supervision. Fatty acid blood testing was performed prior to the injury and at the end of the 30 days of DHA supplementation by analyzing the isolated serum phospholipids (including DHA, EPA and Arachidonic acid) from 50 microliter blood samples using a previously described method (Holub and Skeaff, Methods Enzymol. 141:234-44 (1987); Nutrasource Diagnostics, University of Guelph, Ontario, Canada).

[3] = system: diffuse axonal injury in rats (impact acceleration injury); experiment: Impact acceleration injury model in rats: APP / active caspase-3 positive axons by immunohistochemistry; type: in vivo, Sprague-Dawley rats; conditions: for APP positive axons: 30 days post injury, p<0.05 versus 148 in unsupplemented animals (sham 6)
Excerpt: Method. The impact acceleration injury model in rats described in Marmarou et al., J Neurosurg. 80:291-300 (1994), incorporated herein by reference, was used for the study. Four groups of ten (n=40) of adult male Sprague-Dawley rats were subjected to an impact acceleration injury resulting in reproducible severe traumatic brain injury. Rats weighing between 350 and 400 g received induction anesthesia and subsequently maintained on inhaled anesthetic using a modified medical anesthesia machine. The animals were shaved and prepared in sterile fashion for surgery, followed by subcutaneous injection of local anesthetic into the planned incision site. A 3 cm midline incision in the scalp was made, periosteal membranes separated, exposing bregma and lambda. A metal disk 10 mm in diameter and 3 mm thick was attached to the skull with cyanoacrylate and centered between bregma and lambda. The animal was placed prone on a foam bed with the metal disk directly under a plexiglas tube. A 450 g brass weight was dropped through the tube from a height of 2 meters striking the disk. The animal was then ventilated on 100% O2 while the skull inspected and the incision repaired. When the animal recovered spontaneous respirations, anesthesia was discontinued and the animal returned to its cage for postoperative observation (Marmarou et al., supra). All procedures involving live animals were approved by the Institutional Animal Care and Use Committee of West Virginia University, and were performed according to the principles of the Guide for the Care and Use of Laboratory Animals, published by the Institute of Laboratory Resources, National Research Council (NIH publication 85-23-2985).
as §1
Tissue Preparation and Immunohistochemical Labeling. Following 30 day post-injury, surviving animals were euthanized with a lethal dose injection of 0.5 ml Ketamine and 0.5 ml Xylazine. […]

## CC/C=C\C/C=C\C/C=C\C/C=C\C/C=C\C/C=C\CCC(=O)O [DHA, (all-Z)-4,7,10,13,16,19-docosahexaenoic acid]
[1]
  observed untoward effects of daily oral supplementation: without any observed untoward effects
[2]; 10 mg/kg/day DHA, 30 days after brain trauma, serum
  decrease in AA:EPA ratio, a marker of inflammation: 72%
[2]; 10 mg/kg/day DHA, 30 days after brain trauma
  increased levels of serum DHA over initial levels: 123%
[2]; 40 mg/kg/day DHA, 30 days after brain trauma
  increased levels of serum DHA over initial levels: 176%
[2]; end of supplementation period, 10 and 40 mg/kg/day
  total EPA and DHA in serum phospholipids compared to the sham animals: dose-response effect in the increase
[2]; supplemented animals, end of supplementation period
  serum arachidonic acid levels: non-significant increase
[3]; 10 mg/kg/day DHA, corticospinal tract and medial lemnisci
  APP positive axons: 26 axons per mm^2
[3]; 40 mg/kg/day DHA, corticospinal tract and medial lemnisci
  APP positive axons: 20 axons per mm^2
[3]; 10 or 40 mg/kg/day DHA, corticospinal tract and medial lemnisci
  APP labeling of axons, qualitative: only rare APP positive axons, similar to sham injured animals
[3]; 10 or 40 mg/kg/day oral, 30 days following injury, data not shown
  active caspase-3 positive axons: significant decrease

From patent US20110086914A1, “Methods for Treating Traumatic Brain Injury” (priority 2009, published 2011)
